From US20210251963A1, “UREA DERIVATIVES FOR USE IN THE TREATMENT OF SUBJECTS WITH ELEVATED EXPRESSION AND/OR ACTIVITY OF SRPK1” (Scandion Oncology A/S, priority 2018, published 2021)

Key:
Assay in all cases: Premier Screen kinase activity screening (33P ATP filter binding)
Assay type in all cases: biochemical
Conditions in all cases: 10 μM SCO-101, mean of assay duplicates, read-out: Kinase activity (percentage of DMSO control)
[1] = target: T1, ABL (Homo sapiens, UniProt P00519)
T1 construct: MRC in Dundee (screening service)
Summary of the method: (§1)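 Each kinase was incubated with 10 μM compound and 33P-ATP, and incorporated radioactivity was captured on filters as a direct measure of enzyme activity. Mean percentage activity of the duplicates was then calculated against DMSO controls and reported with its standard deviation.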

[2] = target: T2, ASK1 (Homo sapiens, UniProt Q99683)
T2 construct: purchased MRC in Dundee (Premier Screen service)
Summary of the method: as §1

[3] = target: T3, BRK (Homo sapiens, UniProt Q13882)
T3 construct: MRC in Dundee (screening service)
Summary of the method: as §1

[4] = target: T4, CK1γ2 (Homo sapiens, UniProt P78368)
T4 construct: purchased MRC Dundee, Premier Screen (contract screening service)
T4 sequence (P78368 whole entry): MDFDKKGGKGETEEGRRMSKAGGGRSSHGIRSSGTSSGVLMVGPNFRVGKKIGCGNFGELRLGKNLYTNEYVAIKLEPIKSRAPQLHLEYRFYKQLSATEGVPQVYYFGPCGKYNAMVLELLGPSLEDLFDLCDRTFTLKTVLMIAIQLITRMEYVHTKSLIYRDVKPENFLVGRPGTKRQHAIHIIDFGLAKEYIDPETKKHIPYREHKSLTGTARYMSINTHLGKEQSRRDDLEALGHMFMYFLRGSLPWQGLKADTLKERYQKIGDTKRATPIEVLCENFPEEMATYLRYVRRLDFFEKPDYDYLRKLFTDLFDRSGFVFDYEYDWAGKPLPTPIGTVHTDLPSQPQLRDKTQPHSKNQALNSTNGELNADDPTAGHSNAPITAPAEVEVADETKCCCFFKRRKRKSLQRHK
Summary of the method: as §1

[5] = target: T5, CK2 (Homo sapiens, UniProt P68400)
T5 construct: purchased MRC Dundee, Premier Screen (contract screening service)
Summary of the method: as §1

[6] = target: EPH-B2 (Homo sapiens, UniProt P29323)
Summary of the method: as §1

[7] = target: T6, ERK1 (Homo sapiens, UniProt P27361)
T6 construct: purchased MRC in Dundee (Premier Screen service)
T6 sequence (P27361 whole entry, species assumed): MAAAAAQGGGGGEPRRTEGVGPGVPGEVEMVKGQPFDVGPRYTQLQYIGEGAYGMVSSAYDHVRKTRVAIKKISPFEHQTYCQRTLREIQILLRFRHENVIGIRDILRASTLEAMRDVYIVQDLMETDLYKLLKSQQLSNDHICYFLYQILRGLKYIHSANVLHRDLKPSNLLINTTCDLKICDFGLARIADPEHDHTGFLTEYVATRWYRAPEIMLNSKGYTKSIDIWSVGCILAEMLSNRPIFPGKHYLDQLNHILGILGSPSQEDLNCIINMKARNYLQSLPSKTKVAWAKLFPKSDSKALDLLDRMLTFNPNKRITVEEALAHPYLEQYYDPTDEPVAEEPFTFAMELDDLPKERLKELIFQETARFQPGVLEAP
Summary of the method: as §1

[8] = target: T7, HER4 (Homo sapiens, UniProt Q15303)
T7 construct: MRC Dundee (screening service)
Summary of the method: as §1

[9] = target: T8, IGF-1R (Homo sapiens, UniProt P08069)
T8 construct: purchased MRC in Dundee (Premier Screen service)
Summary of the method: as §1

[10] = target: T9, IKKb (Homo sapiens, UniProt O14920)
T9 construct: MRC Dundee (screening service)
Summary of the method: as §1

[11] = target: T10, IRR (Homo sapiens, UniProt P14616)
T10 construct: purchased MRC in Dundee (Premier Screen service)
Summary of the method: as §1

[12] = target: JAK3 (Homo sapiens, UniProt P52333)
Summary of the method: as §1

[13] = target: T11, JNK2 (Homo sapiens, UniProt P45984)
T11 construct: purchased MRC Dundee, Premier Screen (contract screening service)
Summary of the method: as §1

[14] = target: MAP4K3 (Homo sapiens, UniProt Q8IVH8)
Summary of the method: as §1

[15] = target: T12, MAPKAP-K2 (Homo sapiens, UniProt P49137)
T12 construct: MRC Dundee (screening service)
Summary of the method: as §1

[16] = target: T13, MARK1 (Homo sapiens, UniProt Q9P0L2)
T13 construct: purchased MRC in Dundee (Premier Screen service)
Summary of the method: as §1

[17] = target: T14, MARK3 (Homo sapiens, UniProt P27448)
T14 construct: MRC Dundee (screening service)
T14 sequence (P27448 whole entry, species assumed): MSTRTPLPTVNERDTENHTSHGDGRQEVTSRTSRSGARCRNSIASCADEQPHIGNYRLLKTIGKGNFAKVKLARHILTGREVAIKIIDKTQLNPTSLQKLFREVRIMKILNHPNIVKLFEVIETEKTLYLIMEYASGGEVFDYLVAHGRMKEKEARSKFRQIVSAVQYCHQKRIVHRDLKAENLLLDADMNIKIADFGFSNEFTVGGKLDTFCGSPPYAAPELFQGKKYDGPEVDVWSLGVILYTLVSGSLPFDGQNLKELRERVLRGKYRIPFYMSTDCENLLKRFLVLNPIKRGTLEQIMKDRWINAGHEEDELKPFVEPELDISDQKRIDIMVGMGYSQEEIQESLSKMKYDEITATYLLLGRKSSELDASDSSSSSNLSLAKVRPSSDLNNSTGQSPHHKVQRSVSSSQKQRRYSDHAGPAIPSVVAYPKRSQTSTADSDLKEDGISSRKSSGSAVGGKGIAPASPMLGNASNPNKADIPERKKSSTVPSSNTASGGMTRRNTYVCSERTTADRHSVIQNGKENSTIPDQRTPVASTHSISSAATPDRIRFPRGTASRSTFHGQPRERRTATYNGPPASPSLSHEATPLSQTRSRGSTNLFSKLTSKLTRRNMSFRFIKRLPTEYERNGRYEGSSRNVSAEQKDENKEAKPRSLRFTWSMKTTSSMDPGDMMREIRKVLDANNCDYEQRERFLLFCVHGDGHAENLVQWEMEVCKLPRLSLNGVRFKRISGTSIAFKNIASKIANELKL
Summary of the method: as §1

[18] = target: T15, MELK (Homo sapiens, UniProt Q14680)
T15 construct: MRC Dundee (screening service)
Summary of the method: as §1

[19] = target: T16, MINK1 (Homo sapiens, UniProt Q8N4C8)
T16 construct: purchased MRC in Dundee (Premier Screen service)
Summary of the method: as §1

[20] = target: MKK1 (Homo sapiens, UniProt Q02750)
Summary of the method: as §1

[21] = target: T17, MNK2 (Homo sapiens, UniProt Q9HBH9)
T17 construct: purchased MRC Dundee, Premier Screen (contract screening service)
Summary of the method: as §1

[22] = target: T18, PDGFRA (Homo sapiens, UniProt P16234)
T18 construct: purchased MRC in Dundee (Premier Screen service)
T18 sequence (P16234 24-1089, species assumed): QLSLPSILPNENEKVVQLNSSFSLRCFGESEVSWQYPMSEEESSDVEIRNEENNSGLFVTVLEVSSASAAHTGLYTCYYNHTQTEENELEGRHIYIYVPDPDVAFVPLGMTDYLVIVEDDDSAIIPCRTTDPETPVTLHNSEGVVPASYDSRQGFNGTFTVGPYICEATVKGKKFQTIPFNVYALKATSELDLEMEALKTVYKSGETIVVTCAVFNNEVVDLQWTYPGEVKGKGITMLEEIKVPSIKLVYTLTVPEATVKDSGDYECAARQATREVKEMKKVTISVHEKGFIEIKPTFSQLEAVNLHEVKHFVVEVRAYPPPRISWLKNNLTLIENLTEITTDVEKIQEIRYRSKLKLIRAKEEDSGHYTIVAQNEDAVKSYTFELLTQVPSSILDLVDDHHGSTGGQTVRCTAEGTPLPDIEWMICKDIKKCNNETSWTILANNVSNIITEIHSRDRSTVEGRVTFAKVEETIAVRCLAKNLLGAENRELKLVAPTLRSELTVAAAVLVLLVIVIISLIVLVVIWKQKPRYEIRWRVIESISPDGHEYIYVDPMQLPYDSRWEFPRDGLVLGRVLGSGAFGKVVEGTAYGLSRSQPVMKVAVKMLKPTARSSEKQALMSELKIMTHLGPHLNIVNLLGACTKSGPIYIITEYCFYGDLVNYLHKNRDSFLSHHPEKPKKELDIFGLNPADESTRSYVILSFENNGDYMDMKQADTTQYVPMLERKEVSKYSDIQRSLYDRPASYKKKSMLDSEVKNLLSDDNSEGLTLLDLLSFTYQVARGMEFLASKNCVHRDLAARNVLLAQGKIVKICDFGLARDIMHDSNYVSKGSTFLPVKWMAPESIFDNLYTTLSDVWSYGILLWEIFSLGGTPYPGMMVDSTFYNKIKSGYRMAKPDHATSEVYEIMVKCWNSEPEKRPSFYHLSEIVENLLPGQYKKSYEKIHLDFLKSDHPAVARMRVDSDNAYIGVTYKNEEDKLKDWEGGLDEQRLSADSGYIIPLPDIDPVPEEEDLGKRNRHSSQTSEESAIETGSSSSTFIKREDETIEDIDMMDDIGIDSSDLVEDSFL
Summary of the method: as §1

[23] = target: T19, PIM1 (Homo sapiens, UniProt P11309)
T19 construct: purchased MRC in Dundee (Premier Screen service)
T19 sequence (P11309 whole entry, species assumed): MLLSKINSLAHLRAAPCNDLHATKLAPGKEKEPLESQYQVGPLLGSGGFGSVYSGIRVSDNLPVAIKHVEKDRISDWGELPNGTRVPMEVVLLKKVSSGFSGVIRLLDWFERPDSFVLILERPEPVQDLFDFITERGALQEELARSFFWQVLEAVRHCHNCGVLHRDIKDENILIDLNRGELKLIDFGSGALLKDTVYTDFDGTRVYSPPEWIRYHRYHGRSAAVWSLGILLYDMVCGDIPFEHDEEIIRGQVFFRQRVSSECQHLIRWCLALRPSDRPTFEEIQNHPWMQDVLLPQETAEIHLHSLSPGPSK
Summary of the method: as §1

[24] = target: T20, PIM3 (Homo sapiens, UniProt Q86V86)
T20 construct: purchased MRC in Dundee (Premier Screen service)
Summary of the method: as §1

[25] = target: T21, PKBa (Homo sapiens, UniProt P31749)
T21 construct: purchased MRC in Dundee (Premier Screen service)
Summary of the method: as §1

[26] = target: PKCa (Homo sapiens, UniProt P17252)
Summary of the method: as §1

[27] = target: T22, PKCz (Homo sapiens, UniProt Q05513)
T22 construct: MRC Dundee (screening service)
T22 sequence (Q05513 whole entry): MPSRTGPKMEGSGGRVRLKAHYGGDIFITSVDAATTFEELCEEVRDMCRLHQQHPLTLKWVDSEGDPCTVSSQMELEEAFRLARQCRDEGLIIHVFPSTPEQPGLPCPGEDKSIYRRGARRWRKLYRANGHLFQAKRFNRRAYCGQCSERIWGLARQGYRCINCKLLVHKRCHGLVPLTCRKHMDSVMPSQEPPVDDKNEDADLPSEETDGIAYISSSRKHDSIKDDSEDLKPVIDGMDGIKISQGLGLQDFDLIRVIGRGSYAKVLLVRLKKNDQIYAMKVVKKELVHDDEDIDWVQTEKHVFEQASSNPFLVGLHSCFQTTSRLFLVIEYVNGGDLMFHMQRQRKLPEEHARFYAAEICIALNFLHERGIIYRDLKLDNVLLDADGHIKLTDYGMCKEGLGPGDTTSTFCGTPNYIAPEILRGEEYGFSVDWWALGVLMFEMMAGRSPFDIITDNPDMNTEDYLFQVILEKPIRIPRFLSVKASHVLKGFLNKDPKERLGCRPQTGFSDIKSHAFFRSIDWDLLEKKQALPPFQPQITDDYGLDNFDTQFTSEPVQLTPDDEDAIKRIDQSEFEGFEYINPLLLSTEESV
Summary of the method: as §1

[28] = target: T23, PLK1 (Homo sapiens, UniProt P53350)
T23 construct: purchased MRC in Dundee (Premier Screen service)
Summary of the method: as §1

[29] = target: T24, PRAK (Homo sapiens, UniProt Q8IW41)
T24 construct: purchased MRC in Dundee (Premier Screen service)
Summary of the method: as §1

[30] = target: RIPK2 (Homo sapiens, UniProt O43353)
Summary of the method: as §1

[31] = target: T25, ROCK 2 (Rattus norvegicus, UniProt Q62868)
T25 construct: MRC Dundee (screening service)
Summary of the method: as §1

[32] = target: T26, STK33 (Homo sapiens, UniProt Q9BYT3)
T26 construct: MRC Dundee (screening service)
T26 sequence (Q9BYT3 whole entry, species assumed): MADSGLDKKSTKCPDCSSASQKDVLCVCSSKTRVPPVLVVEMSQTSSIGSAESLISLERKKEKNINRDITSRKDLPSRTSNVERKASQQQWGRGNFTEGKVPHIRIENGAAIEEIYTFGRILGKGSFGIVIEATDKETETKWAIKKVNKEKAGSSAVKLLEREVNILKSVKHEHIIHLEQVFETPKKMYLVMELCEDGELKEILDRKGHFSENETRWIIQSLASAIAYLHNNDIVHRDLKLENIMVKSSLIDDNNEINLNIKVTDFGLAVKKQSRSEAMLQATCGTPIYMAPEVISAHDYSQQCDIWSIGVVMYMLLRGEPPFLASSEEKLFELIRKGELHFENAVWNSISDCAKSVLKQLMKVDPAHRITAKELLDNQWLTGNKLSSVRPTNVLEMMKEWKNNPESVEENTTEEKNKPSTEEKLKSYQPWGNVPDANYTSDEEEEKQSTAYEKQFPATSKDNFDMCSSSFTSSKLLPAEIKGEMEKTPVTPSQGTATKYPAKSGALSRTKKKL
Summary of the method: as §1

[33] = target: T27, TBK1 (Homo sapiens, UniProt Q9UHD2)
T27 construct: purchased MRC in Dundee (Premier Screen service)
Summary of the method: as §1

[34] = target: T28, TrkA (Homo sapiens, UniProt P04629)
T28 construct: purchased MRC in Dundee (Premier Screen service)
T28 sequence (P04629 33-796, species assumed): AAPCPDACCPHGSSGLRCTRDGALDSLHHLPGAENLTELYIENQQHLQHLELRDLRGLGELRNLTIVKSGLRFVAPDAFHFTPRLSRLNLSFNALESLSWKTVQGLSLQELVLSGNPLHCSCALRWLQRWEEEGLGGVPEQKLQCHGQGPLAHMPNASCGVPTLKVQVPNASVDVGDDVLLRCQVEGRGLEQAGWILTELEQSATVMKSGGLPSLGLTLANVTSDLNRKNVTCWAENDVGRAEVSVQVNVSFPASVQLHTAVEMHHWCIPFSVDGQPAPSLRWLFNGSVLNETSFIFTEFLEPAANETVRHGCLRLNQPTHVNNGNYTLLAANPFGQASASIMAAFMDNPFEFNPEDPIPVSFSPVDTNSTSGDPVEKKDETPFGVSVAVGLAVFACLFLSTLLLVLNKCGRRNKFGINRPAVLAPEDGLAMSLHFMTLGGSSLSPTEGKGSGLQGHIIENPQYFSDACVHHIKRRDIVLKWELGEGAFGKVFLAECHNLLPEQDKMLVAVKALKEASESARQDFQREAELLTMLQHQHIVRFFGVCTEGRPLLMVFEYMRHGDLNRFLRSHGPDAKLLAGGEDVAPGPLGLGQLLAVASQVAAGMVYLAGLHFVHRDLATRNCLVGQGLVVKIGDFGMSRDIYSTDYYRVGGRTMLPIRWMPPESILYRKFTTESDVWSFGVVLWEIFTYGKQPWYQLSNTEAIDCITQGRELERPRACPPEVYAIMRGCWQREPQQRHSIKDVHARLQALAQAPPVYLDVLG
Summary of the method: as §1

[35] = target: T29, VEG-FR (Homo sapiens, UniProt P17948)
T29 construct: purchased MRC in Dundee (Premier Screen service)
Summary of the method: as §1

[36] = target: p38d MAPK (Homo sapiens, UniProt O15264)
Summary of the method: as §1

## O=C(Nc1cc(C(F)(F)F)cc(C(F)(F)F)c1)Nc1ccc(Br)cc1-c1nnn[nH]1 [SCO-101]
[1]
  remaining activity at 10 µM: 85%
[2]
  remaining activity at 10 µM: 136%
[3]
  remaining activity at 10 µM: 94%
[4]
  remaining activity at 10 µM: 109%
[5]
  remaining activity at 10 µM: 107%
[6]
  remaining activity at 10 µM: 117%
[7]
  remaining activity at 10 µM: 137%
[8]
  remaining activity at 10 µM: 98%
[9]
  remaining activity at 10 µM: 128%
[10]
  remaining activity at 10 µM: 99%
[11]
  remaining activity at 10 µM: 131%
[12]
  remaining activity at 10 µM: 121%
[13]
  remaining activity at 10 µM: 105%
[14]
  remaining activity at 10 µM: 113%
[15]
  remaining activity at 10 µM: 100%
[16]
  remaining activity at 10 µM: 74%
[17]
  remaining activity at 10 µM: 99%
[18]
  remaining activity at 10 µM: 95%
[19]
  remaining activity at 10 µM: 173%
[20]
  remaining activity at 10 µM: 118%
[21]
  remaining activity at 10 µM: 104%
[22]
  remaining activity at 10 µM: 62%
[23]
  remaining activity at 10 µM: 61%
[24]
  remaining activity at 10 µM: 49%
[25]
  remaining activity at 10 µM: 126%
[26]
  remaining activity at 10 µM: 116%
[27]
  remaining activity at 10 µM: 101%
[28]
  remaining activity at 10 µM: 59%
[29]
  remaining activity at 10 µM: 69%
[30]
  remaining activity at 10 µM: 121%
[31]
  remaining activity at 10 µM: 101%
[32]
  remaining activity at 10 µM: 100%
[33]
  remaining activity at 10 µM: 126%
[34]
  remaining activity at 10 µM: 25%
[35]
  remaining activity at 10 µM: 66%
[36]
  remaining activity at 10 µM: 113%
